The supplement of paper PMC10883282

Experiments:
Experiment in all cases: relative viability vs DMSO control (72 h) (fraction); higher = more viable cells
RD = test system: RD
Procedure, shortened: (§1)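 Sarcoma cell lines were grown in 384-well plates seeded toward 80–90% confluence and exposed 24 h later to serially diluted compound. After 72 h at 37 °C and 5% CO2, with 0.1% DMSO vehicle and a 5 µM positive control on the plates, ATPLite was read. Relative viability, given as percent growth averaged over up to triplicate wells, was rescaled so that 1 is full and 0 is none.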

VA-ES-BJ = test system: VA-ES-BJ
Procedure, shortened: as §1

HS729 = test system: HS729
Procedure, shortened: as §1

MES-SA = test system: MES-SA
Procedure, shortened: as §1

SK-LMS-1 = test system: SK-LMS-1
Procedure, shortened: as §1

CCN(c1cc(-c2ccc(CN3CCOCC3)cc2)cc(C(=O)NCc2c(C)cc(C)[nH]c2=O)c1C)C1CCOCC1 [Tazemetostat]
relative viability
Details | HS729 | MES-SA | RD | SK-LMS-1 | VA-ES-BJ
0.00017 µM | 1.04 | 1 | 0.988 | 0.996 | 1.038
0.00051 µM | 1.05 | 0.988 | 1 | 1.02 | 1.046
0.00152 µM | 1.03 | 0.9899 | 1.04 | 0.981 | 1.05
0.00457 µM | 1.05 | 0.986 | 1.04 | 1 | 1.05
0.01372 µM | 1.04 | 0.977 | 1.05 | 0.997 | 1.034
0.04115 µM | 1.01 | 0.998 | 1.03 | 1.03 | 1.06
0.1235 µM | 0.98 | 1 | 1.06 | 0.969 | 1.06
0.3704 µM | 1 | 0.942 | 1.03 | 0.9897 | 1.07
1.111 µM | 0.938 | 0.933 | 1.04 | 0.976 | 1.06
3.333 µM | 0.932 | 0.926 | 1.04 | 0.969 | 1.08
10 µM | 0.892 | 0.874 | 1.03 | 0.938 | 1.07

C[C@@H](Oc1cc(-c2cnn(C3CCNCC3)c2)cnc1N)c1c(Cl)ccc(F)c1Cl [Crizotinib]
relative viability
Details | HS729 | MES-SA | RD | SK-LMS-1 | VA-ES-BJ
0.00017 µM | 0.998 | 0.943 | 1.08 | 1.03 | 1.06
0.00051 µM | 1.01 | 0.935 | 1.07 | 1.02 | 1.05
0.00152 µM | 0.9714 | 0.943 | 1.106 | 1.01 | 1.06
0.00457 µM | 0.98 | 0.944 | 1.09 | 1.01 | 1.06
0.01372 µM | 0.9284 | 0.946 | 1.1 | 0.996 | 1.04
0.04115 µM | 0.947 | 0.969 | 1.1 | 0.921 | 0.975
0.1235 µM | 0.922 | 0.938 | 1.09 | 0.641 | 0.899
0.3704 µM | 0.872 | 0.536 | 0.88 | 0.571 | 0.764
1.111 µM | 0.744 | 0.434 | 0.626 | 0.525 | 0.641
3.333 µM | 0.58 | 0.27 | 0.441 | 0.335 | 0.505
10 µM | 0.0222 | -0.000833 | 0.00437 | 0.0176 | 0.00337

Cc1cn(-c2cc(NC(=O)c3ccc(C)c(Nc4nccc(-c5cccnc5)n4)c3)cc(C(F)(F)F)c2)cn1 [Nilotinib]
relative viability
Details | HS729 | MES-SA | RD | SK-LMS-1 | VA-ES-BJ
0.00017 µM | 0.914 | 0.882 | 1.06 | 0.953 | 1.05
0.00051 µM | 0.914 | 0.867 | 1.07 | 0.983 | 1.04
0.00152 µM | 0.92 | 0.874 | 1.09 | 1.01 | 1.04
0.00457 µM | 0.915 | 0.875 | 1.08 | 1.03 | 1.05
0.01372 µM | 0.922 | 0.88 | 1.11 | 1.02 | 1.05
0.04115 µM | 0.907 | 0.94 | 1.12 | 1.05 | 1.06
0.1235 µM | 0.848 | 0.938 | 1.11 | 1.11 | 1.08
0.3704 µM | 0.792 | 0.93 | 1.07 | 1.12 | 1.1
1.111 µM | 0.766 | 0.891 | 0.898 | 1.16 | 1.1
3.333 µM | 0.656 | 0.659 | 0.731 | 0.978 | 0.989
10 µM | 0.737 | 0.594 | 0.6531 | 0.965 | 0.679

CNC(=O)c1cc(Oc2ccc(NC(=O)Nc3ccc(Cl)c(C(F)(F)F)c3)cc2)ccn1 [Sorafenib]
relative viability
Details | HS729 | MES-SA | RD | SK-LMS-1 | VA-ES-BJ
0.00017 µM | 0.948 | 0.928 | 1.11 | 1.1 | 1.04
0.00051 µM | 0.966 | 0.925 | 1.11 | 1.07 | 1.07
0.00152 µM | 0.939 | 0.909 | 1.09 | 1.11 | 1.07
0.00457 µM | 0.978 | 0.934 | 1.12 | 1.1 | 1.06
0.01372 µM | 0.946 | 0.923 | 1.09 | 1.1 | 1.07
0.04115 µM | 1.02 | 0.949 | 1.12 | 1.12 | 1.09
0.1235 µM | 0.937 | 1.01 | 1.14 | 1.05 | 1.11
0.3704 µM | 0.85 | 1.03 | 1.13 | 1.09 | 1.143
1.111 µM | 0.858 | 0.985 | 1.04 | 1.07 | 1.15
3.333 µM | 0.811 | 0.716 | 0.9 | 0.713 | 1.14
10 µM | 0.624 | 0.135 | 0.504 | 0.0735 | 0.436

Cc1cn(-c2cc(NC(=O)c3ccc(C)c(Nc4nccc(-c5cnccn5)n4)c3)cc(C(F)(F)F)c2)cn1 [Radotinib]
relative viability
Details | HS729 | MES-SA | RD | SK-LMS-1 | VA-ES-BJ
0.00017 µM | 0.995 | 0.935 | 1.11 | 1.05 | 1.05
0.00051 µM | 1.01 | 0.938 | 1.1 | 1.07 | 1.08
0.00152 µM | 1.02 | 0.935 | 1.12 | 1.08 | 1.05
0.00457 µM | 1.03 | 0.941 | 1.12 | 1.05 | 1.06
0.01372 µM | 0.995 | 0.958 | 1.12 | 1.08 | 1.08
0.04115 µM | 0.99 | 0.954 | 1.11 | 1.14 | 1.05
0.1235 µM | 1.02 | 0.981 | 1.13 | 1.14 | 1.11
0.3704 µM | 1.03 | 0.99 | 1.12 | 1.19 | 1.17
1.111 µM | 0.995 | 1.01 | 1.1 | 1.11 | 1.18
3.333 µM | 0.8744 | 1.01 | 1.07 | 1.18 | 1.21
10 µM | 0.875 | 1.03 | 1.04 | 1.12 | 1.21
